Source: ChEMBL document CHEMBL1155795, “Revisiting the sponge sources, stereostructure, and biological activity of cyclocinamide a” (J Nat Prod, 2008)
Starred links: 1 amine or outer side, 2 acyl side, 3 side chain; linkers in the order of their positions; H or OH if unused. Positions of bridges follow the written chain, without caps; N, C: chain ends. Non-standard residues stand in square brackets, D forms with d. Residues, ends and D or L forms follow the SMILES beside them. *: point of attachment. Trp(5-Br) = N[C@@H](Cc1c[nH]c2ccc(Br)cc12)C(=O)O; isoSer(2S) = O=C([C@@H](O)CN[*:1])[*:2]; X1 = Cn1cc(Cl)cc1C(=O)*; Dap = NC[C@H](N)C(=O)O

Legend:
[1] = system: HCT-116; test: Cytotoxicity against human HCT116 cells; format: functional, cell-based
[2] = Cytotoxicity against human […] cells assessed as zone of inhibition at 90 ug/disk by disk diffusion soft agar colony forming assay; format: functional; conditions: read-out: IZ
[3] = Cytotoxicity against mouse CFU-GM cells assessed as zone of inhibition at 90 ug/disk by disk diffusion soft agar colony forming assay; format: functional; conditions: read-out: IZ

## Cn1cc(Cl)cc1C(=O)NCC(=O)N[C@H]1CNC(=O)[C@H](Cc2c[nH]c3ccc(Br)cc23)NC(=O)[C@@H](O)CNC(=O)[C@H](CC(N)=O)NC1=O (X1-G[Dap]N[isoSer(2S)][Trp(5-Br)]; lactam 2-C)
[1]
  IC50: > 10 µg/mL
[2]
  zone of inhibition at 90 µg/disc: 26 mm
[3]
  zone of inhibition at 90 µg/disc: 16 mm
